Experimental data as given in EP0474374A1, “Method for treatment of bone wasting diseases using a progestin” (ORTHO PHARMACEUTICAL CORPORATION, priority 1990, dated 1992).

Test system: MC3T3-El osteoblast-line cells
Test: Osteoblast cell proliferation (3H-thymidine incorporation into DNA)
Type: cell-based, mouse
Conditions: ability to stimulate 3H-thymidine incorporation in MC3T3-El osteoblast-line cells, stimulation over control
Experimental: Only cells undergoing mitosis will synthesize new DNA and thus only these cells will incorporate the radiolabelled DNA specific nucleotide, thymidine. […] The ability of agents to increase osteoblast proliferation and differentiation can be predicted by their action on cultured osteoblast-line cells in vitro. In this test mouse (MC3T3-El), and human (TE-85) osteoblast-line cells were cultured in vitro and the effect of various progestins was tested on osteoblast cell proliferation. Osteoblast cell proliferation was determined by measuring the rate of DNA synthesis, which was quantified by measuring the rate of ³H-thymidine incorporation into DNA.
Following their placement into 96 well culture plates all the osteoblast-line cells, either the MC3T3-El or the TE-85 cell lines, were allowed an additional 24 hours preincubation period in media containing only 0.1% fetal bovine sera. The next day the test compounds were added and screened at concentrations ranging from 10⁻¹⁴ to 10⁻⁶ M depending on the particular study. Twenty hours later a 20 ul aliquot of media containing 0.4 uCi of ³H-thymidine was added to each culture well. The cells were then incubated for an additional 4 hours. The incubation was terminated by aspirating the media and washing with HBSS (Hank's Balanced Salt Solution). The cells were then treated with 100 ul of Trypsin-EDTA (Ethylene Diamine Tetra Acetic Acid) (0.5% trypsin and 5.3 mM EDTA) for 30 minutes at room temperature. The cells were then aspirated onto a glass fiber filter and washed with water. The radioactivity on the filters was quantified by liquid scintillation spectroscopy. The rate of ³H-thymidine incorporation into DNA is then utilized as an index of cell proliferation.
Mouse (MC3T3-El) osteoblast-line cells were cultured in vitro and the effect of various progestins on the ability of the cells to incorporate 3H-thymidine was determined. Osteoblast cell proliferation is determined by measuring the rate of DNA synthesis which was quantified by measuring the rate of ³H-thymidine incorporation into DNA. MC-3T3-El osteoblast-line cells were harvested from large culture flasks where they were allowed to grow to near confluency using Trypsin.

| SMILES | OSTEOBLAST STIMULATION |
| --- | --- |
| C#C[C@]1(OC(C)=O)CC[C@H]2[C@@H]3CCC4=CC(=NO)CC[C@@H]4[C@H]3CC[C@@]21CC (mixture of isomers) [NORGESTIMATE] | NOT ACTIVE |
| C#C[C@]1(O)CC[C@H]2[C@@H]3CCC4=CC(=O)CC[C@@H]4[C@H]3C(=C)C[C@@]21CC [3-KETO-DESOGESTREL] | NOT ACTIVE |
| C[C@]12CCC(=O)C[C@@H]1CC[C@@H]1[C@@H]2CC[C@]2(C)[C@@H](O)CC[C@@H]12 [DIHYDROTESTOSTERONE, 5-alpha-dihydrotestosterone] | NOT ACTIVE |
| C#C[C@]1(O)CC[C@H]2[C@@H]3CCC4=CC(=O)CC[C@@H]4[C@H]3CC[C@@]21CC [LEVONORGESTREL] | NOT ACTIVE |
| CC(=O)[C@H]1CC[C@H]2[C@@H]3CCC4=CC(=O)CC[C@]4(C)[C@H]3CC[C@]12C [PROGESTERONE] | ACTIVE |

Same assay, conditions: summary statement in words; bone forming cells, cell line not named

| SMILES | osteoblast proliferation and differentiation |
| --- | --- |
| C#C[C@]1(OC(C)=O)CC[C@H]2[C@@H]3CCC4=CC(=NO)CC[C@@H]4[C@H]3CC[C@@]21CC (mixture of isomers) [NORGESTIMATE] | do not stimulate |
| C[C@]12CC[C@H]3[C@@H](CCC4=CC(=O)CC[C@@H]43)[C@@H]1CC[C@@H]2O [19-nortestosterone] | do not stimulate |
| CC(=O)[C@H]1CC[C@H]2[C@@H]3CCC4=CC(=O)CC[C@]4(C)[C@H]3CC[C@]12C [PROGESTERONE] | significantly and reproducibly stimulate |
| CC(=O)O[C@]1(C(C)=O)CC[C@H]2[C@@H]3C=C(Cl)C4=CC(=O)CC[C@]4(C)[C@H]3CC[C@@]21C [chlormadionone acetate] | significantly and reproducibly stimulate |
| CC(=O)O[C@]1(C(C)=O)CC[C@H]2[C@@H]3C=C(Cl)C4=CC(=O)[C@@H]5C[C@@H]5[C@]4(C)[C@H]3CC[C@@]21C [cyproterone acetate] | do not stimulate |
| C#C[C@]1(O)CC[C@H]2[C@@H]3CCC4=CCCC[C@@H]4[C@H]3C(=C)C[C@@]21CC [desogestrel] | do not stimulate |
| CC(=O)O[C@]1(C(C)=O)CC[C@H]2[C@@H]3C[C@H](C)C4=CC(=O)CC[C@]4(C)[C@H]3CC[C@@]21C [medroxyprogesterone acetate] | significantly and reproducibly stimulate |
| CC(=O)O[C@]1(C(C)=O)CC[C@H]2[C@@H]3C=C(C)C4=CC(=O)CC[C@]4(C)[C@H]3CC[C@@]21C [megestrol acetate] | significantly and reproducibly stimulate |
| C#C[C@]1(OC(C)=O)CC[C@H]2[C@@H]3CCC4=CC(=O)CC[C@@H]4[C@H]3CC[C@@]21C [norethindrone acetate] | significantly and reproducibly stimulate |
| C#C[C@]1(O)CC[C@H]2[C@@H]3CCC4=C(CCC(=O)C4)[C@H]3CC[C@@]21C [norethynodrel] | significantly and reproducibly stimulate |
